From US11213567B2, “ZAG-derived peptide and use thereof” (L&C Bio Co., LTD., priority 2017, dated 2022)

B1: Z0: ZAG protein, entire sequence of 298 amino acids (GenBank: AAH05306.1; SEQ ID NO: 19) (protein, listed as Homo sapiens)
chain: MVRMVPVLLSLLLLLGPAVPQENQDGRYSLTYIYTGLSKHVEDVPAFQALGSLNDLQFFRYNSKDRKSQPMGLWRQVEGMEDWKQDSQLQKAREDIFMETLKDIVEYYNDSNGSHVLQGRFGCEIENNRSSGAFWKYYYDGKDYIEFNKEIPAWVPFDPAAQITKQKWEAEPVYVQRAKAYLEEECPATLRKYLKYSKNILDRQDPPSVVVTSHQAPGEKKKLKCLAYDFYPGKIDVHWTRAGEVQEPELRGDVLHNGNGTYQSWVVVAVPPQDTAPYSCHVQHSSLAQPLVVPWEAS

What was measured:
IL-6 = test: Atopic dermatitis efficacy test using macrophages (RAW 264.7): IL-6 released after LPS, ELISA; format: cell-based, mouse; set-up: key to RAW 264.7 (mouse) IL-6: •: have statistical significance, determining as effective, compared with the positive control; settings: for RAW 264.7 (mouse) IL-6: 1 μg/mL for 24 hours, then LPS 0.1 μg/mL 24 hours; for IL-6 concentration released in cell culture medium: Example 2-1, FIG. 2A, RAW 264.7, 1 μg/mL 24 hours, LPS 0.1 μg/mL 24 hours, compared with positive control (Pos)
Procedure: (§1) To select an amino acid sequence corresponding to a key active site of ZAG having efficacy in the alleviation of atopic symptoms from 18 peptide candidate groups, an atopic dermatitis efficacy test was performed. Five types of immune-related cells were treated with ZAG peptide candidate groups (Z1-Z18, SEQ ID NOs: 1 to 18, respectively) and the ZAG protein (Z0, SEQ ID NOs: 19) at a concentration of 1 μg/mL for 24 hours, and then treated with a stimulator suitable for each cell line for the listed time to confirm an immune response. The experiment was performed with a group treated with only a stimulator as a positive control experimental group, and a group treated with only a vehicle without a stimulator as a negative control experimental group (Table 2: Efficacy test method for atopic dermatitis). An inflammatory response-related enzyme used as a stimulator is produced by immune cells, and histamine initiates an inflammatory response. The immune cells migrating to a damaged region release cytokines such as tumor necrosis factor-α (TNF-α) and interleukin-6 (IL-6) to directly lyse foreign invasive substances or collect other immune cells to initiate an inflammatory response. An efficacy test using inflammation-inducing materials, interferon-γ and skin inflammation-related factor CCL-17/thymus- and activation-regulated chemokine (TARC) was also performed to confirm an immune response.
Macrophages (RAW 264.7 cells) were treated with a stimulator LPS at a concentration of 0.1 μg/mL for 24 hours, and then the concentration of IL-6 released in a cell culture medium was confirmed by ELISA assay.
(§2) Various types of immune cells were treated with each of Z20mer-1, Z20mer-2, Z20mer-3, Z15mer-1, Z15mer-2, Z15mer-3 and Z15mer-4 at a concentration of 1 μg/mL for 24 hours, and then treated with a stimulator suitable for each cell line for the listed time to confirm an immune response. The atopic dermatitis efficacy test method was performed by the same method as described in Example 1 and Table 2.
(§3) The experiment was performed with experimental groups: 1) negative control: vehicle-treated group (Neg), 2) positive control: a group treated with only a stimulator (Pos), and 3) experimental group: groups treated with a stimulator and ZAG3 or a ZAG3-derived oligopeptide (Z20mer-1, Z20mer-2, Z20mer-3, Z15mer-1, Z15mer-2, Z15mer-3 or Z15mer-4). Concentrations were measured from cell culture by ELISA.
Macrophages (RAW 264.7 cells) were treated with a stimulator LPS at a concentration of 0.1 μg/mL for 24 hours, and then a concentration of IL-6 released in a cell culture medium was confirmed by ELISA assay.

Histamine = test: Atopic dermatitis efficacy test using mast cells (RBL-2H3): histamine released after PMA and A23187, ELISA; format: cell-based, rat; set-up: key: •: have statistical significance, determining as effective, compared with the positive control; settings: 1 μg/mL for 24 hours, then PMA 1 μg/mL, A23187 1 μg/mL 12 hours
Procedure: as §1
Mast cells (RBL-2H3) were treated with 1 μg/mL of PMA and 1 μg/mL of A23187 as stimulators for 12 hours, and a concentration of histamine released in a cell culture medium was confirmed by ELISA assay.
as §2, §3
Mast cells (RBL-2H3) were treated with 1 μg/mL of PMA and 1 μg/mL of A23187 as simulators for 12 hours, and then a concentration of histamine released in a cell culture medium was confirmed by ELISA assay. As compared with the positive control (Pos), in all of the oligopeptide-treated groups, the histamine release was reduced (FIG. 2B).

IgE = test: Atopic dermatitis efficacy test using B lymphocytes (RPMI 1788): IgE released after LPS, ELISA; format: cell-based, human; set-up: key: •: have statistical significance, determining as effective, compared with the positive control; settings: then LPS 0.1 μg/mL 24 hours
Procedure: as §1
(§4) B lymphocytes (RPMI 1788) were treated with 0.1 μg/mL of LPS as a stimulator for 24 hours, and a concentration of IgE released in a cell culture medium was confirmed by ELISA assay.
as §2, §3
as §4, with “and then” for “and”, “assay. As compared with the positive control (Pos), in all of the oligopeptide-treated groups, IgE was reduced (FIG. 2D).” for “assay.”

IL-4 = test: Atopic dermatitis efficacy test using T lymphocytes: IL-4 released after IL-2, ELISA; format: cell-based, human; set-up: key to T lymphocyte (human) IL-4: •: have statistical significance, determining as effective, compared with the positive control; settings: for IL-4 concentration released in cell culture medium: Example 1-5, FIG. 1E, IL-2 50 ng/mL 12 hours; for IL-4 concentration released in cell culture medium / IL-4: T lymphocytes, 1 μg/mL 24 hours; for T lymphocyte (human) IL-4: 1 μg/mL for 24 hours, then IL-2 50 ng/mL 12 hours; for IL-4: Example 2-5, FIG. 2E, compared with positive control (Pos)
Procedure: as §1
An atopic dermatitis efficacy test using T lymphocytes was performed with six peptide candidate groups (Z3, Z4, Z5, Z12, Z14, and Z15), which were determined to have efficacy from the results of Examples 1-1 to 1-4 described above. T lymphocytes were treated with 50 ng/mL of IL-2 as a stimulator for 12 hours, and a concentration of IL-4 released in a cell culture medium was confirmed by ELISA assay.
as §2, §3
An experiment was performed on T lymphocytes using the target peptides selected through the previous experiment. As compared with the positive control (Pos), in all of the oligopeptide-treated groups (Z20mer-1, Z20mer-2, Z20mer-3, Z15mer-1, Z15mer-2, Z15mer-3, and Z15mer-4), IL-4 was reduced (FIG. 2E).

CCL17/TARC = test: Atopic dermatitis efficacy test using keratinocytes (HaCaT): CCL17/TARC released after TNF-α and IFN-γ, ELISA; format: cell-based, human; set-up: key to HaCaT (human) CCL17/TARC: •: have statistical significance, determining as effective, compared with the positive control; settings: for HaCaT (human) CCL17/TARC: 1 μg/mL for 24 hours, then TNF-α 0.4 μg/mL, IFN-γ 0.4 μg/mL 24 hours; for CCL17/TARC concentration released in cell culture medium: Example 2-3, FIG. 2C, HaCaT, 1 μg/mL 24 hours, TNF-α 0.4 μg/mL and IFN-γ 0.4 μg/mL 24 hours, compared with positive control (Pos)
Procedure: as §1
Keratinocytes (HaCaT cells) were treated with 0.4 μg/mL of TNF-α and 0.4 μg/mL of IFN-γ as stimulators for 24 hours, and then a concentration of CCL17/TARC released in a cell culture medium was confirmed by ELISA assay.
as §2, §3

[1] = Table 3, 1 μg/mL for 24 hours, vs stimulator only
[2] = Table 5, 1 μg/mL for 24 hours, vs positive control

Molecule	RAW 264.7 (mouse) IL-6 (IL-6; Table 3, vs stimulator only)	RBL-2H3 (rat) Histamine (Histamine; Table 3, vs stimulator only)	B lymphocyte (human) IgE (IgE; [1])	IL-4 concentration released in cell culture medium (IL-4)	T lymphocyte (human) IL-4 (IL-4; Table 3, vs stimulator only)	HaCaT (human) CCL17/TARC (CCL17/TARC; Table 3, vs stimulator only)	IL-6 concentration released in cell culture medium (IL-6)	CCL17/TARC concentration released in cell culture medium (CCL17/TARC)	RAW 264.7 (mouse) IL-6 (IL-6; Table 5, vs positive control)	RBL-2H3 (rat) Histamine (Histamine; Table 5, vs positive control)	B lymphocyte (human) IgE (IgE; [2])	IL-4 (IL-4)	T lymphocyte (human) IL-4 (IL-4; Table 5, vs positive control)	HaCaT (human) CCL17/TARC (CCL17/TARC; Table 5, vs positive control)
Z14: ZAG protein-derived peptide, SEQ ID NO. 14: IFMETLKDIVEYYNDSNGSHVLQGRFGCEI (ZAG protein-derived peptide)	•	•	•	significantly decreased	•	•	–	–	–	–	–	–	–	–
Z4: ZAG protein-derived peptide, SEQ ID NO. 4: SNGSHVLQGRFGCEIENNRSSGAFWKYYYD (ZAG protein-derived peptide)	•	•	•	significantly decreased	•	•	–	–	–	–	–	–	–	–
Z5: ZAG protein-derived peptide, SEQ ID NO. 5: GKDYIEFNKEIPAWVPFDPAAQITKQKWEA (ZAG protein-derived peptide)	•	•	•	significantly decreased	•	•	–	–	–	–	–	–	–	–
Z8: ZAG protein-derived peptide, SEQ ID NO. 8: YPGKIDVHWTRAGEVQEPELRGDVLHNGNG (ZAG protein-derived peptide)	•	•	•	–	–	•	–	–	–	–	–	–	–	–
Z3: ZAG protein-derived peptide, SEQ ID NO. 3: EDWKQDSQLQKAREDIFMETLKDIVEYYND (ZAG protein-derived peptide)	•	•	•	significantly decreased	•	•	significantly decreased	significantly decreased	–	–	–	–	–	–
Z15mer-4: ZAG3-derived oligopeptide, SEQ ID NO. 26: IFMETLKDIVEYYND (ZAG protein-derived peptide)	–	–	–	–	–	–	significantly decreased	significantly decreased	•	•	•	reduced	•	•
Z18: ZAG protein-derived peptide, SEQ ID NO. 18: AVPPQDTAPYSCHVQHSSLAQPLVVPWEAS (ZAG protein-derived peptide)	–	•	•	–	–	•	–	–	–	–	–	–	–	–
Z6: ZAG protein-derived peptide, SEQ ID NO. 6: EPVYVQRAKAYLEEECPATLRKYLKYSKNI (ZAG protein-derived peptide)	•	•	•	–	–	•	–	–	–	–	–	–	–	–
Z7: ZAG protein-derived peptide, SEQ ID NO. 7: LDRQDPPSVVVTSHQAPGEKKKLKCLAYDF (ZAG protein-derived peptide)	•	•	•	–	–	•	–	–	–	–	–	–	–	–
Z20mer-1: ZAG3-derived oligopeptide, SEQ ID NO. 20: EDWKQDSQLQKAREDIFMET (ZAG protein-derived peptide)	–	–	–	–	–	–	–	significantly decreased	–	•	•	reduced	•	•
Z15mer-3: ZAG3-derived oligopeptide, SEQ ID NO. 25: KAREDIFMETLKDIV (ZAG protein-derived peptide)	–	–	–	–	–	–	significantly decreased	significantly decreased	•	•	•	reduced	•	•
B1	•	•	•	–	•	•	–	–	–	–	–	–	–	–
